In ChEMBL document CHEMBL1201862, “PubChem BioAssay data set” (2004):
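Briefly, cells in 96-well plates were exposed to five compound concentrations for 48 h, and endpoints were estimated by linear interpolation. Abbreviation: GI50, concentration required for 50% inhibition of growth.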 The source made the active and inactive calls. Cut-off read from the data, not from the text of the source: active = GI50 up to about 1.1 µM and inactive = higher.

What was measured:
Assay in all cases: NCI tumour cell line growth inhibition, 48 h
K562 = test system: K562
M14 = test system: M14
SF-295 = test system: SF-295
LOX IMVI = test system: LOX IMVI
ACHN = test system: ACHN
DU-145 = test system: DU-145
HCT-15 = test system: HCT-15
HOP-92 = test system: HOP-92
SK-MEL-2 = test system: SK-MEL-2
NCI-H460 = test system: NCI-H460
T47D = test system: T47D
NCI/ADR-RES = test system: NCI/ADR-RES
MDA-MB-435 = test system: MDA-MB-435
HL-60 = test system: HL-60
PC-3 = test system: PC-3
HCT-116 = test system: HCT-116
NCI-H23 = test system: NCI-H23
SNB-19 = test system: SNB-19
CCRF-CEM = test system: CCRF-CEM
MDA-MB-231 = test system: MDA-MB-231
UO-31 = test system: UO-31
UACC-62 = test system: UACC-62
HT-29 = test system: HT-29
MCF7 = test system: MCF7
KM12 = test system: KM12
EKVX = test system: EKVX
OVCAR-4 = test system: OVCAR-4
IGROV-1 = test system: IGROV-1
SK-MEL-5 = test system: SK-MEL-5
SF-268 = test system: SF-268
786-0 = test system: 786-0
BT-549 = test system: BT-549
SK-MEL-28 = test system: SK-MEL-28
SNB-75 = test system: SNB-75
COLO 205 = test system: COLO 205
OVCAR-8 = test system: OVCAR-8
CAKI-1 = test system: CAKI-1
HOP-62 = test system: HOP-62
TK-10 = test system: TK-10
SK-OV-3 = test system: SK-OV-3
OVCAR-3 = test system: OVCAR-3
NCI-H226 = test system: NCI-H226
A498 = test system: A498
SW-620 = test system: SW-620
A549 = test system: A549
SF-539 = test system: SF-539
SR = test system: SR
NCI-H522 = test system: NCI-H522
HCC 2998 = test system: HCC 2998
Malme-3M = test system: Malme-3M
MOLT-4 = test system: MOLT-4
OVCAR-5 = test system: OVCAR-5
RPMI-8226 = test system: RPMI-8226
SN12C = test system: SN12C
UACC-257 = test system: UACC-257
U-251 = test system: U-251
Hs-578T = test system: Hs-578T
RXF 393 = test system: RXF 393

NC(=O)CN1CC(C2=C(O)CN(CC(N)=O)C2=O)=CC1=O
GI50 (K562): > 100 µM (inactive) | GI50 (M14): > 100 µM (inactive) | GI50 (SF-295): > 100 µM (inactive) | GI50 (LOX IMVI): > 100 µM (inactive) | GI50 (ACHN): > 100 µM (inactive) | GI50 (DU-145): > 100 µM (inactive) | GI50 (HCT-15): > 100 µM | GI50 (HOP-92): > 100 µM (inactive) | GI50 (SK-MEL-2): > 100 µM (inactive) | GI50 (NCI-H460): > 100 µM (inactive) | GI50 (T47D): > 100 µM (inactive) | GI50 (NCI/ADR-RES): > 100 µM (inactive) | GI50 (MDA-MB-435): > 100 µM (inactive) | GI50 (HL-60): > 100 µM (inactive) | GI50 (PC-3): > 100 µM (inactive) | GI50 (HCT-116): > 100 µM (inactive) | GI50 (NCI-H23): > 100 µM (inactive) | GI50 (SNB-19): > 100 µM (inactive) | GI50 (CCRF-CEM): > 100 µM (inactive) | GI50 (MDA-MB-231): > 100 µM (inactive) | GI50 (UO-31): 85.7 µM (inactive) | GI50 (UACC-62): > 100 µM (inactive) | GI50 (HT-29): > 100 µM (inactive) | GI50 (MCF7): > 100 µM (inactive) | GI50 (KM12): > 100 µM (inactive) | GI50 (EKVX): > 100 µM (inactive) | GI50 (OVCAR-4): > 100 µM (inactive) | GI50 (IGROV-1): > 100 µM (inactive) | GI50 (SK-MEL-5): > 100 µM (inactive) | GI50 (SF-268): > 100 µM (inactive) | GI50 (786-0): > 100 µM (inactive) | GI50 (BT-549): > 100 µM (inactive) | GI50 (SK-MEL-28): > 100 µM (inactive) | GI50 (SNB-75): > 100 µM (inactive) | GI50 (COLO 205): > 100 µM (inactive) | GI50 (OVCAR-8): > 100 µM (inactive) | GI50 (CAKI-1): > 100 µM (inactive) | GI50 (HOP-62): > 100 µM (inactive) | GI50 (TK-10): > 100 µM (inactive) | GI50 (SK-OV-3): > 100 µM (inactive) | GI50 (OVCAR-3): > 100 µM (inactive) | GI50 (NCI-H226): > 100 µM (inactive) | GI50 (A498): > 100 µM (inactive) | GI50 (SW-620): > 100 µM (inactive) | GI50 (A549): > 100 µM (inactive) | GI50 (SF-539): > 100 µM (inactive) | GI50 (SR): > 100 µM (inactive) | GI50 (NCI-H522): > 100 µM (inactive) | GI50 (HCC 2998): > 100 µM (inactive) | GI50 (Malme-3M): > 100 µM (inactive) | GI50 (MOLT-4): > 100 µM (inactive) | GI50 (OVCAR-5): > 100 µM (inactive) | GI50 (RPMI-8226): > 100 µM (inactive) | GI50 (SN12C): > 100 µM (inactive) | GI50 (UACC-257): > 100 µM (inactive) | GI50 (U-251): > 100 µM (inactive) | GI50 (Hs-578T): > 100 µM (inactive)

COC(=O)c1ccccc1CC(Cc1ccccc1)C(=O)OC (centres undefined)
GI50 (K562): 37.7 µM (inactive) | GI50 (M14): 68.7 µM (inactive) | GI50 (SF-295): > 100 µM (inactive) | GI50 (LOX IMVI): 58.9 µM (inactive) | GI50 (ACHN): > 100 µM (inactive) | GI50 (DU-145): > 100 µM (inactive) | GI50 (HCT-15): 31.3 µM | GI50 (SK-MEL-2): 36.8 µM (inactive) | GI50 (NCI-H460): > 100 µM (inactive) | GI50 (T47D): > 10 µM (inactive) | GI50 (NCI/ADR-RES): 42.5 µM (inactive) | GI50 (MDA-MB-435): 75.3 µM (inactive) | GI50 (HL-60): 18.5 µM (inactive) | GI50 (PC-3): 47.1 µM (inactive) | GI50 (HCT-116): 47.9 µM (inactive) | GI50 (NCI-H23): 46.6 µM (inactive) | GI50 (SNB-19): 68.4 µM (inactive) | GI50 (CCRF-CEM): 87.9 µM (inactive) | GI50 (MDA-MB-231): > 100 µM (inactive) | GI50 (UO-31): 39.1 µM (inactive) | GI50 (HT-29): 55.5 µM (inactive) | GI50 (MCF7): 82 µM (inactive) | GI50 (KM12): 87.3 µM (inactive) | GI50 (EKVX): 45.9 µM (inactive) | GI50 (OVCAR-4): 96.8 µM (inactive) | GI50 (IGROV-1): > 100 µM (inactive) | GI50 (SK-MEL-5): 22.8 µM (inactive) | GI50 (SF-268): 20.3 µM (inactive) | GI50 (786-0): 71.3 µM (inactive) | GI50 (BT-549): > 100 µM (inactive) | GI50 (SK-MEL-28): > 100 µM (inactive) | GI50 (SNB-75): 20 µM (inactive) | GI50 (RXF 393): 33.7 µM (inactive) | GI50 (COLO 205): 64.6 µM (inactive) | GI50 (OVCAR-8): 87.1 µM (inactive) | GI50 (CAKI-1): 83.4 µM (inactive) | GI50 (HOP-62): > 100 µM (inactive) | GI50 (TK-10): 99.1 µM (inactive) | GI50 (SK-OV-3): 36.3 µM (inactive) | GI50 (OVCAR-3): 58.1 µM (inactive) | GI50 (NCI-H226): 43.1 µM (inactive) | GI50 (A498): 92.5 µM (inactive) | GI50 (SW-620): > 100 µM (inactive) | GI50 (A549): 61.9 µM (inactive) | GI50 (SF-539): > 100 µM (inactive) | GI50 (SR): 27 µM (inactive) | GI50 (NCI-H522): 50.6 µM (inactive) | GI50 (HCC 2998): 40.3 µM (inactive) | GI50 (Malme-3M): 64.4 µM (inactive) | GI50 (MOLT-4): 27.4 µM (inactive) | GI50 (OVCAR-5): 62.7 µM (inactive) | GI50 (RPMI-8226): 27.6 µM (inactive) | GI50 (SN12C): > 100 µM (inactive) | GI50 (UACC-257): 72.1 µM (inactive) | GI50 (U-251): 30.8 µM (inactive) | GI50 (Hs-578T): 56 µM (inactive)

COC(=O)c1cccc(COc2ccc([N+](=O)[O-])cc2Cl)c1
GI50 (K562): 72.4 µM (inactive) | GI50 (M14): > 100 µM (inactive) | GI50 (SF-295): > 100 µM (inactive) | GI50 (LOX IMVI): 85.5 µM (inactive) | GI50 (ACHN): 53.3 µM (inactive) | GI50 (DU-145): > 100 µM (inactive) | GI50 (HCT-15): 70.5 µM | GI50 (HOP-92): 44.5 µM (inactive) | GI50 (SK-MEL-2): > 100 µM (inactive) | GI50 (NCI-H460): > 100 µM (inactive) | GI50 (T47D): > 100 µM (inactive) | GI50 (NCI/ADR-RES): > 100 µM (inactive) | GI50 (MDA-MB-435): > 100 µM (inactive) | GI50 (PC-3): > 100 µM (inactive) | GI50 (HCT-116): > 100 µM (inactive) | GI50 (NCI-H23): > 100 µM (inactive) | GI50 (SNB-19): > 100 µM (inactive) | GI50 (CCRF-CEM): 63.4 µM (inactive) | GI50 (MDA-MB-231): 82.8 µM (inactive) | GI50 (UO-31): 98.9 µM (inactive) | GI50 (UACC-62): 43.4 µM (inactive) | GI50 (HT-29): > 100 µM (inactive) | GI50 (MCF7): > 100 µM (inactive) | GI50 (KM12): > 100 µM (inactive) | GI50 (EKVX): 37.4 µM (inactive) | GI50 (OVCAR-4): 58.3 µM (inactive) | GI50 (IGROV-1): > 100 µM (inactive) | GI50 (SK-MEL-5): 51.1 µM (inactive) | GI50 (SF-268): > 100 µM (inactive) | GI50 (786-0): > 100 µM (inactive) | GI50 (BT-549): > 100 µM (inactive) | GI50 (SK-MEL-28): > 100 µM (inactive) | GI50 (SNB-75): > 100 µM (inactive) | GI50 (RXF 393): > 100 µM (inactive) | GI50 (COLO 205): > 100 µM (inactive) | GI50 (OVCAR-8): > 100 µM (inactive) | GI50 (CAKI-1): 56 µM (inactive) | GI50 (HOP-62): > 100 µM (inactive) | GI50 (TK-10): > 100 µM (inactive) | GI50 (SK-OV-3): > 100 µM (inactive) | GI50 (OVCAR-3): 63.4 µM (inactive) | GI50 (NCI-H226): 43.2 µM (inactive) | GI50 (A498): 36.5 µM (inactive) | GI50 (SW-620): > 100 µM (inactive) | GI50 (A549): 42.5 µM (inactive) | GI50 (SF-539): > 100 µM (inactive) | GI50 (SR): > 100 µM (inactive) | GI50 (NCI-H522): 63.7 µM (inactive) | GI50 (Malme-3M): > 100 µM (inactive) | GI50 (MOLT-4): > 100 µM (inactive) | GI50 (OVCAR-5): > 100 µM (inactive) | GI50 (RPMI-8226): 89.7 µM (inactive) | GI50 (SN12C): 49 µM (inactive) | GI50 (UACC-257): > 100 µM (inactive) | GI50 (U-251): 83.2 µM (inactive) | GI50 (Hs-578T): 60.1 µM (inactive)
